Results reported in paper PMC7587356, “High-Throughput Screening for Inhibitors of the SARS-CoV-2 Protease Using a FRET-Biosensor” (Molecules, 2020).
Counter-ions that a name gives are not always drawn. Like-named read-outs stand apart in the source and are kept apart here.

Target: SARS-CoV-2 3CLpro (Severe acute respiratory syndrome coronavirus 2, UniProt P0DTD1)
Assay: biochemical
Type: biochemical
Design: Replicate_1 / Replicate_2 / mean / mean (LOPAC_screen_w_protease): unit not given here
Conditions: for inhibition at 5 µM: 4 h
[1] = sheet LOPAC_screen_w_protease, primary screen with protease, compound at 5 µM, mean of two replicates
[2] = sheet LOPAC_screen_w_protease, primary screen with protease, compound at 5 µM, replicate 1
[3] = sheet LOPAC_screen_w_protease, primary screen with protease, compound at 5 µM, replicate 2
[4] = sheet LOPAC_screen_w_protease, primary screen with protease, compound at 5 µM, mean of two replicates, read-out: mean
[5] = sheet LOPAC_screen_w_protease, primary screen with protease, compound at 5 µM, replicate 1, read-out: Replicate_1
[6] = sheet LOPAC_screen_w_protease, primary screen with protease, compound at 5 µM, replicate 2, read-out: Replicate_2
[7] = sheet LOPAC_screen_w_protease, LOPAC1280 primary screen at 5 µM, with protease, mean of the two replicates, read-out: mean
[8] = sheet LOPAC_screen_w_protease, LOPAC1280 primary screen at 5 µM, with protease, replicate 1, read-out: Replicate_1
[9] = sheet LOPAC_screen_w_protease, LOPAC1280 primary screen at 5 µM, with protease, replicate 2, read-out: Replicate_2

## NNC(=O)c1ccc(O)cc1 [4-Hydroxybenzhydrazide]
[1]
  mean: 2.583
[2]
  Replicate_1: 1.695
[3]
  Replicate_2: 3.47

## CNCCCN1c2ccccc2CCc2ccccc21 [Desipramine hydrochloride]
  mean (LOPAC_screen_w_protease): 1.646
read-out: Replicate_1 (LOPAC_screen_w_protease)
  inhibition at 5 µM: 1.71%
read-out: Replicate_2 (LOPAC_screen_w_protease)
  inhibition at 5 µM: 1.58%

## Cn1c(=O)c2[nH]c(C3CCCC3)nc2n(C)c1=O [8-Cyclopentyl-1,3-dimethylxanthine]
Sheet LOPAC_screen_w_protease, primary screen with protease, 5 µM, mean of two replicates
  mean: 0.2262
Sheet LOPAC_screen_w_protease, primary screen with protease, 5 µM, replicate 1
  Replicate_1: 2.489
Sheet LOPAC_screen_w_protease, primary screen with protease, 5 µM, replicate 2
  Replicate_2: -2.037

## Fc1ccc(C(c2ccc(F)cc2)N2CCN(C/C=C/c3ccccc3)CC2)cc1 [Flunarizine dihydrochloride]
[4]
  inhibition at 5 µM: 2.85%
[5]
  inhibition at 5 µM: 3.4%
[6]
  inhibition at 5 µM: 2.29%

## COc1ccccc1N1CCN(CCCNc2c(C)c(=O)n(C)c(=O)n2C)CC1 [Urapidil, 5-Methyl-]
Sheet LOPAC_screen_w_protease, LOPAC1280 primary screen at 5 µM, with protease, mean of two replicates
  mean: -1.384
Sheet LOPAC_screen_w_protease, LOPAC1280 primary screen at 5 µM, with protease, replicate 1
  Replicate_1: -1.313
Sheet LOPAC_screen_w_protease, LOPAC1280 primary screen at 5 µM, with protease, replicate 2
  Replicate_2: -1.455

## Cl.NC1(C(=O)O)CCCCC1
[1]
  mean: 2.729
[2]
  Replicate_1: 1.961
[3]
  Replicate_2: 3.496

## CC(=O)[C@H]1CC[C@H]2[C@@H]3CC[C@H]4C[C@H](O)CC[C@]4(C)[C@H]3C(=O)C[C@]12C [5alpha-Pregnan-3alpha-ol-11,20-dione]
Sheet LOPAC_screen_w_protease, primary screen with protease, mean of two replicates
  mean: 2.341
Sheet LOPAC_screen_w_protease, primary screen with protease, replicate 1
  Replicate_1: 0.8983
Sheet LOPAC_screen_w_protease, primary screen with protease, replicate 2
  Replicate_2: 3.784

## CC(=O)C(C)=O [2,3-Butanedione]
[7]
  inhibition at 5 µM: 0.702%
[8]
  inhibition at 5 µM: 1.88%
[9]
  inhibition at 5 µM: -0.473%

## C[C@H](O)[C@H](O)[C@H]1CNc2nc(N)[nH]c(=O)c2N1.Cl
[1]
  mean: 3.136
[2]
  Replicate_1: 3.694
[3]
  Replicate_2: 2.577

## CC(=O)[C@H]1CC[C@H]2[C@@H]3CCC4=CC(=O)CC[C@]4(C)[C@H]3CC[C@]12C [Progesterone]
Sheet LOPAC_screen_w_protease, LOPAC1280 primary screen with protease, 5 µM compound, mean of the two replicates, read-out: mean
  inhibition at 5 µM: 5.55%
Sheet LOPAC_screen_w_protease, LOPAC1280 primary screen with protease, 5 µM compound, replicate 1, read-out: Replicate_1
  inhibition at 5 µM: 3.58%
Sheet LOPAC_screen_w_protease, LOPAC1280 primary screen with protease, 5 µM compound, replicate 2, read-out: Replicate_2
  inhibition at 5 µM: 7.53%

## NCCc1c[nH]c2ccccc12 [Tryptamine hydrochloride]
[7]
  inhibition at 5 µM: 0.461%
[8]
  inhibition at 5 µM: 0.957%
[9]
  inhibition at 5 µM: -0.0349%

## Br.CN1CCc2cc(O)cc3c2[C@H]1Cc1ccc(O)c(O)c1-3
Sheet LOPAC_screen_w_protease, primary screen at 5 µM, mean of two replicates
  mean (LOPAC screen with protease): 100.809
Sheet LOPAC_screen_w_protease, primary screen at 5 µM, replicate 1
  Replicate_1 (LOPAC screen with protease): 99.6837
Sheet LOPAC_screen_w_protease, primary screen at 5 µM, replicate 2
  Replicate_2 (LOPAC screen with protease): 101.934

## N#CC(C#N)=Cc1ccc(O)c(O)c1 [Tyrphostin 23]
[4]
  inhibition at 5 µM: 3.07%
[5]
  inhibition at 5 µM: 2.09%
[6]
  inhibition at 5 µM: 4.04%

## CC1CCN(CC[C@H]2CCCN2S(=O)(=O)c2cccc(O)c2)CC1.Cl [SB 269970 hydrochloride]
LOPAC1280 primary screen with protease, 5 µM compound, mean of the two replicates
  mean (LOPAC_screen_w_protease): 2.103
LOPAC1280 primary screen with protease, 5 µM compound, replicate 1
  Replicate_1 (LOPAC_screen_w_protease): 1.356
LOPAC1280 primary screen with protease, 5 µM compound, replicate 2
  Replicate_2 (LOPAC_screen_w_protease): 2.851

## CC(C)[N+](C)(CCOC(=O)C1c2ccccc2Oc2ccccc21)C(C)C [Propantheline bromide]
Sheet LOPAC_screen_w_protease, primary screen with protease, 5 µM, mean of two replicates, read-out: mean
  inhibition at 5 µM: 0.204%
Sheet LOPAC_screen_w_protease, primary screen with protease, 5 µM, replicate 1, read-out: Replicate_1
  inhibition at 5 µM: 0.838%
Sheet LOPAC_screen_w_protease, primary screen with protease, 5 µM, replicate 2, read-out: Replicate_2
  inhibition at 5 µM: -0.43%

## C[C@](N)(CCP(=O)(O)O)C(=O)O.Cl [(S)-MAP4 hydrochloride]
Sheet LOPAC_screen_w_protease, primary screen of LOPAC1280 at 5 µM with protease, mean of the two replicates
  mean: 4.027
Sheet LOPAC_screen_w_protease, primary screen of LOPAC1280 at 5 µM with protease, replicate 1
  Replicate_1: 4.444
Sheet LOPAC_screen_w_protease, primary screen of LOPAC1280 at 5 µM with protease, replicate 2
  Replicate_2: 3.611
